2 compounds from PMC10350919 (Journal of Medicinal Chemistry, 2023) can be followed below.

In experiment [1] the test system is E. faecium ATCC 700221. The experiment can be described thus: Neutropenic thigh infection mouse model with VanA E. faecium. The experiment is classed as in vivo. Conditions: compound 17 4 doses at 100 mg/kg i.p., linezolid 4 doses at 50 mg/kg i.p.
Experiment [2] concerns M. tuberculosis H37Ra. The experiment is classed as cell-based, Mycobacterium tuberculosis.
Experiment [3] relates to M. bovis BCG Pasteur ATCC 35734. Type of experiment: cell-based.

For the compound `CC(=O)NC[C@H]1CN(c2ccc(N3CCOCC3)c(F)c2)C(=O)O1` [linezolid], the “weight loss compared to untreated control mice” value in experiment [1] was “reduced weight loss”. Also, the “survival (endpoint: 15% of starting weight lost)” value in experiment [1] (neutropenic mice, Kaplan–Meier, *P < 0.05 Gehan–Breslow–Wilcoxon test) was “significant survival benefit”.
Take complestatin: the “MIC, M. tuberculosis H37Ra” value in experiment [2] was more than 64 µg/mL. Further, in experiment [3], the “MIC, M. bovis BCG Pasteur ATCC 35734” value was 64 µg/mL.
